Patent publication US10213425B2, “Role of N-2-hydroxy-ethyl-piperazine-N′-2-ethane sulfonic acid (HEPES) in pain control and reversal of demyelinization injury” (Bespoke Bioscience, LLC, priority 2009, dated 2019)

Tests used:
[1] = system: Benzodiazepine Withdrawal Symptoms; assay: Clinical case, benzodiazepine withdrawal symptoms (Example 8); format: in vivo, human
Text: patient five is a person, who was initially placed on benzodiazepine medication for panic attacks which presented. They have been on various forms of medications constituting this group for more than three decades. The dilemma which exists is that often the original condition for which the diazepines are prescribed are considered to be psychiatric in nature. When pain and neurological symptoms appear associated with withdrawal, it is often misdiagnosed with additional medications given which compounds the problem. These medications are recommended for short term treatment (4-6 weeks) only, but as with this patient, usage extends over years. One of the major withdrawal symptoms include violent repetitive “tics” which are considerably worsened with emotional situations and other stressors. Abnormal ideation often takes the form of bizarre thoughts as the functioning of the superego is marked impaired. Thus, these patients do things which under normal conditions would never contemplate, much less act out. As a result of these factors, our patient lost their successful business, their houses, and their family comprised of their spouse and three beautiful daughters. They walk with a hopping motion associated with bizarre flailing movements of the shoulder and arms. On the internet are listings of more than 300 withdrawal symptoms. The present inventors were consulted on this patient to see if we could ameliorate their extreme pain problems. Their neurologic examination was truly strange. […] They were started on HEPES by the oral route. […] They will be closely monitored as to their condition with additional treatment.

[2] = system: Post Chemotherapy Cognitive Impairment (PCCI); assay: Clinical case, post chemotherapy cognitive impairment (Example 3); format: in vivo, human; conditions: PCCI patient, oral 5,000 mg daily in divided doses, after a month
Text: patient two is a person who, prior to their diagnosis of breast cancer, has been in charge of the family business involving a host of necessary transactions, including maintenance of financial records and tax liabilities. Post chemotherapy they had profound difficulty remembering what day it was, what time it was, had they taken their morning bath, what to cook for any meal, forgetfulness as to daily chores, transporting their children to school-sponsored events, suddenly breaking telephone conversations with their concerned parent without any recall of the action. The major deficit business-wise was the inability to perform simple mathematical calculations. […] They thought they “was going bonkers!” Their parent inquired as to what could be done to alleviate the rapidly deteriorating family problems. A trial on HEPES was recommended as the symptoms were, at least in part, related to demyelination. They were started on oral HEPES, 5,000 mg daily in divided doses. […] They continue to show improvement in a gratifying manner.

[3] = General clinical administration of HEPES: effective dosage and tolerability; format: in vivo, human
Experimental: The product, HEPES, is produced in ultra-pure form and is available from GIBCOL Technologies, Inc. The product is administered on a body weight basis with the determined minimal effective daily dosage of 70-75 mg/kg. The material may be safely given either by oral or parenteral routes. […] The administered product is prepared by a compounding pharmacist, with the dosage of each patient recipient being individualized.

Cerebral Palsy = assay: Clinical case, cerebral palsy patient (Example 2); format: in vivo, human; conditions: oral 5,000 mg daily
Text: patient five is a child of extraction, whose birthing was extremely difficult, and very probably associated with some degree of neonatal asphyxia, although this was not seriously reflected in the Apgar Score. The person has had superb medical care all their life long with loving and supportive parents able to provide recommended therapies.
Despite the abundance of treatment programs, it required nearly five years for […] to walk slowly in an unassisted manner. Amazingly, their speech pattern and intellectual capabilities were remarkably functional. A major problem was their significant dysfunction with motor skills in their hands. M.S. was given an oral dosage of HEPES of 5,000 mg daily (2 tsps with breakfast, 1 tsp mid-afternoon, and 2 tsps at bedtime). […] After 8 months of therapy, their walking and manual skills have improved to 85% of normal. They became devoted to spending several hours daily on the computer and the amount of knowledge they have acquired and retained is, indeed, phenomenal. The change in this young person has been outstanding and truly gratifying to their parents, their siblings, and especially their physicians.

[4] = system: cell cultures of both animal and human origin; conditions: studies not specified; cited from earlier work
Cancer of the Pancreas = assay: Clinical case, cancer of the pancreas with metastases: analgesic and anti-tumor activity (Example 6); format: in vivo, human
Experimental: The pain was not relieved by passing bowel movements or any other maneuver. They were seen by their personal physician, who diagnosed Type II diabetes mellitus. They were placed on anti-diabetic medication and diet. No additional studies related to the abdominal pain were carried out, even though they were peculiar in a patient with diabetes. Their diabetic state was under satisfactory control with a few weeks, but the abdominal pain problem persisted.
The abdominal pains increased in intensity with new severe pains in the mid-dorsal thoracic spine. […] They underwent radiation treatments for the thoracic lesions which eased, to a limited extent, the pain in this area.
In consultation with the patient ombudsmen group at M. D. Anderson Hospital in Houston, Tex., the family was told that none of the current study protocols were appropriate for their current condition of cancer of the pancreas with wide-spread metastases and such advanced disease. They were given 2-4 months to live. It was recommended that they be treated with pain protocols by the local institutions in the Dallas-Fort Worth area. They were treated by their personal physician who placed them on opiate analgesics for pain control.
In February, 2006, their personal physician contacted the present inventors concerning the possible addition of HEPES as they were receiving the maximal level of opiate medication, which was not controlling the pain the patient was experiencing. In March, 2006, they were placed on a daily dosage of the product administered by intravenous infusion, while continuing their maximum opiate analgesic medication.
In July, 2006, they developed significant anorexia, probably secondary to the increasing levels of endogenous TNF-alpha (cachectic factor). Dronabinol was recommended, but refused by the patient owing to the medication being derived from marijuana. Thereafter, natural source inhibitors of cachectic factor (Table 2) were recommended, but the patient refused to take any of these as they felt these might interfere with the pain control, which was acceptable. They were then offered parenteral nutritional support, which they declined.
From mid-November, 2006, […] developed weakness associated with continued weight loss, and from late November became bed-ridden. […] 2006. While the death certificate lists the cause of death as cancer of the pancreas, in truth the cause of death was terminal anorexia, inanition, and malnutrition, with more than 65 pound weigh loss.

[5] = system: Chronic Inflammatory Demyelinating Polyradiculoneuropathy (CIDP); assay: Clinical case, Chronic Inflammatory Demyelinating Polyradiculoneuropathy (Example 9); format: in vivo, human; conditions: daily oral product, after three weeks
Text: patient three is a person who presents with a history of multiple allergies, infections (including viral meningitis/aseptic encephalitis), multiple episodes of antibiotic treatments, etc. They describe their physical status historically as follows: “I have been seriously ill since 1991 with progressive neurologic deficits, which culminated with significant loss of motor control in 1993. The condition was misdiagnosed as Multiple Sclerosis with negative findings on Mill.” They initially ambulated slowly with the use of a cane. In 1994 they were paralyzed from the neck down. They were treated with Ig intravenously and recovered over a period of weeks. Five months later, they experienced a similar episode. This time the Ig therapy was only weakly helpful, and they as treated with therapeutic plasma exchanges every two weeks. They have recently been experiencing significant pains in their extremities and HEPES was started orally both for pain control and possible reinforcement of any myelinating defects, as our medical colleagues in the Netherlands have had significant success in reversing the demyelination process.

[6] = system: Pediatric Autoimmune Neurological Disease Associated with Strep (PANDAS); assay: Clinical case, Pediatric Autoimmune Neurological Disease Associated with Strep (PANDAS) (Example 7); format: in vivo, human; conditions: for frequency of athetotic movements: intravenous
Parkinson's Disease = assay: Clinical cases, Parkinson's Disease patients (Examples 4 and 5); format: in vivo, human
Text: […] The family history is positive. They have been tried on a variety of Parkinsonian medications, the beneficial actions of which seem to disappear within a few months.
The hand tremor was present only to a small degree, but the head tremors and tics were very prominent to the degree that […] would become nauseated if […] kept […] vision pinpointed.
patient one is a person who has had Parkinsonian symptoms since they were […]. They were placed on levo-dopa with gradual increases to six per day along with large doses of Mirapex and polyethylene glycol for their problem with constipation. Their constipation was really quite intractable with abdominal distention and protrusion, nausea and vomiting. Also very worrisome was their diminished deglutitionary activity and tongue biting with oral bleeding. They were unable to stand without assistance and their hesitant walk favored the festinative aspects. […] Over time the daily dosage of levodopa was reduced from the prescribed 6 per day to 2 per day to which a small dose of the dopamine agonist, bromocriptine, was added with singularly beneficial results. Their condition improved to the extent that they were again able to drive themself to the store, buy gasoline, and eat out. Most, most gratifying, indeed!
They were placed on an active bowel treatment program with good results which, when required was supplemented with an enema q.o.d. They continued to be monitored closely.

Multiple Sclerosis = assay: Clinical case, Multiple Sclerosis patient (Example 1); format: in vivo, human; conditions: MS patient
Text: patient four is a public elementary school teacher, who was diagnosed with MS when they were […].
Mentally, they often experienced periods of lack of concentration and follow-through of immediate projects, generalized muscular stiffness and lack of fine motor coordination with episodes of lurching gait and imbalance. Very bothersome was their manual discoordination which adversely influenced their writing on the chalk board. Indeed, the symptoms were so frequent that their teaching contract was not renewed. They subsequently obtained employment at an academically excellent small Episcopal school where the classes were small and the stress level was considerably less compared with the public school system.
Despite these changes of venue, they had more frequent exacerbations and remissions and experienced multiple medication programs with their very concerned neurologist physician. They continued to use block letters on the blackboard rather than cursive black-board writing as a form of communicating with their students.
After a particularly severe episode of problems, they completely lost the ability to write (e.g., writing a payment check) owing to the loss of manual sensory function and erratic motor movements. The present inventors were asked to see them by the school administrator, who served as their friend and confidant. […]

[7] = continued daily product at 75 mg/kg
[8] = Example 5 patient, 6,000 mg daily, continued treatment

SMILES: O=S(=O)(O)CCN1CCN(CCO)CC1 [HEPES, N-2-hydroxyethylpiperazine-N′-2-ethanesulfonic acid]
- athetoid movements [1, 7]: significant reduction in their athetoid movements
- gait [1, 7]: improved gait
- ideation [1, 7]: more cogent ideation
- pain (jaws and teeth, shoulder joints and muscles, precordial chest, temples) [1, 7]: significant relief of their pain
- dorsiflexion of left foot on neurologic examination ([1]; oral route, after four days on the product): normal dorsiflexion of their left foot
- brain fog ("cloud") [2]: the “cloud” was gone
- minimal effective daily dosage ([3]; administered on a body weight basis): 70 to 75 mg/kg
- side-effects ([3]; general statement on the HEPES product): no side-effects
- side-effects ([3]; oral and parenteral routes): without any significant side-effects
- walking and manual skills (Cerebral Palsy; after 8 months of therapy): 85 % of normal
- movement and control of hands and fingers (Cerebral Palsy; after three weeks): improved to the point where they could selectively (upon oral command) depress the correct key on the computer
- walking pattern (Cerebral Palsy; after three weeks): considerable improvement with significant reduction in ataxic characteristics
- cytotoxicity compared with other buffers [4]: least cytotoxicity of all the known buffers
- opiate side-effects (Cancer of the Pancreas; HEPES administration with reduced opiate narcotic analgesia): elimination of opiate side-effects
- opiate analgesic dosage giving good pain control (Cancer of the Pancreas; daily intravenous HEPES, narcotic medication slowly reduced over three months): about 25 % of the maximum dosage of the opiate analgesics
- pain (Cancer of the Pancreas; daily intravenous infusion added to maximum opiate analgesic medication, after 5 days): completely controlled
- anti-tumor effect (Cancer of the Pancreas; pancreatic cancer with wide-spread metastases, several additional months of quality living): a significant anti-tumor effect
- pain in extremities [5]: completely controlled
- weakness in lower extremities [5]: almost completely resolved
- frequency of athetotic movements ([6]; 70-75 mg/kg level achieved, end of the first week, 1,300-1,500 per day before): 10-15 per day
- frequency of athetotic movements ([6]; end of the second week): 2-3 movements per day
- involuntary athetoid movements ([6]; oral medication at the same daily dosage, during the next three weeks, triggered by emotional or stressful circumstances): infrequent involuntary athetoid movements
- tics after product withdrawn ([6]; product decreased gradually, no product being given): tic-free
- muscular fatigue, stiffness, and tics (Parkinson's Disease; Example 4 patient, 5,000 mg daily in divided doses, within a three-week period): all disappeared
- patient-reported overall condition (Parkinson's Disease; Example 4 patient, 5,000 mg daily, after another couple of weeks): felt like they were before the diagnosis was made
- daily dosage of levodopa needed (Parkinson's Disease; Example 5 patient, 6,000 mg HEPES daily, over time, reduced from the prescribed 6 per day, bromocriptine added): 2 per day
- swallowing difficulties and tongue biting (Parkinson's Disease; Example 5 patient, 6,000 mg daily in divided doses, within three days): obviated their swallowing difficulties and abrogated their tongue biting
- energy level (Parkinson's Disease; [8]): improved significantly
- facial mask (Parkinson's Disease; [8]): completely disappeared
- motor function and exacerbations on continued medication (Multiple Sclerosis; continued on the oral medication): maintained their motor function as well as being free of new exacerbations
- ability to write (Multiple Sclerosis; oral HEPES 5,000 mg daily, after only three days of treatment): regained the ability to write cursively and sign their name in a legible fashion
